Ki data for 26 compounds are collected here from US20070135499A1 (Aerie Pharmaceuticals, Inc., priority 2005, published 2007).

For the experiment, the target named is T1, hGRK-2 (Homo sapiens, UniProt P25098).
T1 sequence (P25098 1-689): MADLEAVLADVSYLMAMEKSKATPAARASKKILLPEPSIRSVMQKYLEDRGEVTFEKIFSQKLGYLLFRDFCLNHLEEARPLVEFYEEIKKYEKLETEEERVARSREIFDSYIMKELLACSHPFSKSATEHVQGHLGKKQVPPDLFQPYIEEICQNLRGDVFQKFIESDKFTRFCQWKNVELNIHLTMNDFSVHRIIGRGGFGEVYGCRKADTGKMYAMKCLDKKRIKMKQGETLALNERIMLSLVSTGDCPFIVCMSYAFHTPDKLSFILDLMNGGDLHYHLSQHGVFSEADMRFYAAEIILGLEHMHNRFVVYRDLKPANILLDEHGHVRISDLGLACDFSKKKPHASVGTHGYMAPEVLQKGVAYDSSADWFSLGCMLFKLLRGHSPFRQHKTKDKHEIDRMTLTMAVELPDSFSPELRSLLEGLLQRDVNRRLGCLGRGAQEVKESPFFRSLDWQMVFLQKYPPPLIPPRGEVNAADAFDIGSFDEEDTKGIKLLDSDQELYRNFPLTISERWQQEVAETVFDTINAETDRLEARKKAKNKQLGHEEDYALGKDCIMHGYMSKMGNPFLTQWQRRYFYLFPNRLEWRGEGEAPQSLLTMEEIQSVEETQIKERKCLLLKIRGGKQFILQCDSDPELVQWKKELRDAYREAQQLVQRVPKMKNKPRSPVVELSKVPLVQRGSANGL
The experiment in a line: luciferase-based (Kinase-Glo) biochemical kinase inhibition assay, hGRK-2. To be noted: luciferase assay, casein substrate, 10 μM ATP; read-out: GRK-2 inhibition, Ki class. The procedure:
The inhibition of G-protein-coupled receptor kinases including hGRK-2 was determined for the hydrazide compounds using a biochemical assay. The inhibition of GRK-3, GRK-5 and GRK-6 was also determined using the same assay for some of the hydrazide derivatives.
The protein kinase inhibition was determined using a biochemical assay utilizing the light emission of a luciferase reaction. The luciferase-based assay operates on the following reaction principles: [drawing 10]
An inhibitor of GRK-2 will increase in the amount of ATP in solution, as shown. Thus, an inhibitor of GRK-2 will drive the luciferase reaction to the right, resulting in more light emitted. The amount of light emitted is proportional to the inhibition resulting from the GRK-2 inhibitor. The luciferase-based assay was also used to test some of the hydrazides for the inhibition properties towards other kinases.
The test procedure was as follows:
• 50 mM HEPES, pH 7.5 • 10 mM MgCl2 • 100 μM activated sodium orthovanadate • 0.01% CHAPS • 0.1% BSA • 1 mM DTT (added fresh daily) 10× Assay Buffer Stock: • 500 mM HEPES, pH 7.5 • 100 mM MgCl2 • 1 mM activated sodium orthovanadate • 0.1% CHAPS • 1% BSA (leave out for 10× compound dilution buffer) Final Assay Conditions: • 50 μM test compound • 20 μM casein • 10 μM ATP • 50 nM hGRK2 • 4.5% DMSO • 90-120 minute incubation
Stopped by addition of 30 μl 3×-diluted Kinase-Glo reagent containing 0.01% trypan blue. Counted on FUSION plate reader.
Compound Dilution and Transfer
Prepare sufficient buffer containing 40% DMSO to add 20 μl/well to the number of plates being assayed. This buffer should not contain BSA because it will precipitate with addition of 40% DMSO. (EXAMPLE: To make 3000 ml compound dilution buffer: 1200 ml DMSO, 180 ml 10× compound dilution buffer, 1615 ml ultrapure water, 3 ml 1M DTT.).
Using Multidrop, add 20 μl of compound dilution buffer to all wells of the 384-well daughter plate (add 1 μl DMSO to control wells). This will result in a daughter plate which contains 21 μl of ˜500 μM test compound.
Using the PlateTrak, transfer 5 μl of the test compounds to a 384-well, non-binding, white microtiter plate.
Prepare sufficient volume of buffer (with BSA and 1 mM DTT) containing 125 nM GRK2 and 25 μM ATP. (Example: To 219 ml of buffer was added 550 μl 10 mM ATP and 350 μl 79 μM GRK2).
Using Multidrop, add 20 μl of GRK2/ATP mixture to all wells of the microtiter plate.
Prepare sufficient volume of buffer (with BSA and 1 mM DTT) containing 40 μM casein. (EXAMPLE: To 211 ml buffer add 8.8 ml 1 mM casein)
Using Multidrop, add 25 μl to columns 1 through 23 of the microtiter plate. Add 25 μl of complete buffer to column 24 (blanks).
Mix reaction gently by tapping (Multidrop addition of casein does a decent job of mixing), stack plates and incubate at room temperature for between 90 and 120 minutes. Assay progression can be tracked in a separate plate if desired. Target 20-30% ATP consumption. Try to avoid exceeding 40% consumption as kinetics might become non-linear due to substrate (ATP) depletion.
Addition of Kinase-Glo Reagents
The Kinase-Glo reagent can be diluted 3-fold with no loss of data quality in this assay. Additionally, since the library contains many colored compounds which will quench the light emitted from the well resulting in a false negative (kinase inhibitors result in less ATP consumption thus more light emitted), the entire reaction is subject to intentional quench to override this effect. This intentional quench is accomplished by the addition of 0.01% trypan blue to the Kinase-Glo reagents. (EXAMPLE: 100 ml 1× Kinase-Glo reagents (prepared according to product insert), 200 ml assay buffer, 7.5 ml 0.4% trypan blue.
Using Multidrop, add 30 μl to all wells of the assay plate.
Count on FUSION plate reader in luminescence mode.

Regarding `COc1cc(NCC(=O)N/N=C/c2ccncc2)cc(OC)c1` [Example 100, (3,5-Dimethoxy-phenylamino)-acetic acid [1-pyridin-4-yl-meth-(E)-ylidene]-hydrazide], the Ki – broadly, the dissociation constant of the complex between target and ligand, obtained from inhibition or displacement – is > 10 µM.

Consider `O=C(CNc1cccc(C(F)(F)F)c1)N/N=C/c1c(Cl)cncc1Cl` [Example 12, (3-Trifluoromethyl-phenylamino)-acetic acid [1-(3,5-dichloro-pyridin-4-yl)-meth-(E)-ylidene]-hydrazide], for which the Ki was > 10 µM. The result for `CC(Nc1cccc(Oc2ccccc2)c1)C(=O)N/N=C/c1ccncc1` (centres unmarked) [Example 99, 2-(3-phenoxy-phenylamino)-propionic acid [1-pyridin-4-yl-meth-(E)-ylidene]-hydrazide] reads > 10 µM; that for `Cc1cccc(NCC(=O)N/N=C/c2ccncc2)c1` [Example 46, (3-Methyl-phenylamino)-acetic acid [1-pyridin-4-yl-meth-(E)-ylidene]-hydrazide], 1 to 10 µM; that for `O=C(CNc1cccc(Oc2cccnc2)c1)N/N=C/c1ccncc1` [Example 86, [3-(Pyridin-3-yloxy)-phenylamino]-acetic acid [1-pyridin-4-yl-meth-(E)-ylidene]-hydrazide], 0.1 to 1 µM. As for `CC(=O)Nc1cccc(NCC(=O)N/N=C/c2ccncc2)c1` [Example 72, N-(3-{[1-Pyridin-4-yl-meth-(E)-ylidene-hydrazinocarbonylmethyl]-amino}-phenyl)-acetamide], the Ki is > 10 µM. As for `Cc1ccc(NCC(=O)N/N=C/c2c(Cl)cncc2Cl)cc1` [Example 17, p-Tolylamino-acetic acid [1-(3,5-dichloro-pyridin-4-yl)-meth-(E)-ylidene]-hydrazide], the figure is 1 to 10 µM; as for `O=C(CNc1ccccc1)N/N=C/c1c(Cl)cncc1Cl` [Example 2, Phenylamino-acetic acid [1-(3,5-dichloro-pyridin-4-yl)-meth-(E)-ylidene]-hydrazide], 0.1 to 1 µM; as for `O=C(CNc1cccc(Cl)c1)N/N=C/c1ccoc1` [Example 94, (3-Chloro-phenylamino)-acetic acid [1-furan-3-yl-meth-(E)-ylidene]-hydrazide], 1 to 10 µM.

Take `O=C(CNc1ccc(Br)cc1)N/N=C/c1ccncc1` [Example 36, (4-Bromo-phenylamino)-acetic acid [1-pyridin-4-yl-meth-(E)-ylidene]-hydrazide]: the Ki was in the range of 1 to 10 µM.

Take `O=C(CNc1ccc(C(F)(F)F)cc1)N/N=C/c1ccncc1` [Example 54, (4-Trifluoromethyl-phenylamino)-acetic acid [1-pyridin-4-yl-meth-(E)-ylidene]-hydrazide]: the Ki was > 10 µM. As for `CCOc1ccccc1NCC(=O)N/N=C/c1ccncc1` [Example 66, (2-Ethoxy-phenylamino)-acetic acid [1-pyridin-4-yl-meth-(E)-ylidene]-hydrazide], the figure is > 10 µM; as for `O=C(CNc1ccc(Cl)cc1)N/N=C/c1c(Cl)cncc1Cl` [Example 18, (4-Chloro-phenylamino)-acetic acid [1-(3,5-dichloro-pyridin-4-yl)-meth-(E)-ylidene]-hydrazide], 1 to 10 µM; as for `O=C(COc1cccc(Cl)c1)N/N=C/c1ccncc1` [Example 38, (3-Chloro-phenoxy)-acetic acid [1-pyridin-4-yl-meth-(E)-ylidene]-hydrazide], > 10 µM. As for `CC(C)c1ccccc1NCC(=O)N/N=C/c1ccncc1` [Example 69, (2-Isopropyl-phenylamino)-acetic acid [1-pyridin-4-yl-meth-(E)-ylidene]-hydrazide], the figure is > 10 µM; as for `O=C(CNc1ccccc1Cc1ccccc1)N/N=C/c1ccncc1` [Example 70, (2-Benzyl-phenylamino)-acetic acid [1-pyridin-4-yl-meth-(E)-ylidene]-hydrazide], 1 to 10 µM; as for `O=C(CNc1cccc(I)c1)N/N=C/c1ccncc1` [Example 49, (3-Iodo-phenylamino)-acetic acid [1-pyridin-4-yl-meth-(E)-ylidene]-hydrazide], 0.1 to 1 µM. As for `O=C(CNc1ccc(Cl)cc1)N/N=C/c1ccncc1` [Example 57, (4-Chloro-phenylamino)-acetic acid [1-pyridin-4-yl-meth-(E)-ylidene]-hydrazide], the figure is 1 to 10 µM; as for `O=C(CNc1cccc(OCCN2CCOCC2)c1)N/N=C/c1c(Cl)cncc1Cl` [Example 32, [3-(2-Morpholin-4-yl-ethoxy)-phenylamino]-acetic acid [1-(3,5-dichloro-pyridin-4-yl)-meth-(E)-ylidene]-hydrazide], 1 to 10 µM.

Take `CC(=O)Nc1cccc(NCC(=O)N/N=C/c2c(Cl)cncc2Cl)c1` [Example 27, N-(3-{[1-(3,5-Dichloro-pyridin-4-yl)-meth-(E)-ylidene-hydrazinocarbonylmethyl]-amino}-phenyl)-acetamide]: the Ki fell in the range of 1 to 10 µM. `O=C(CNc1cccc(Br)c1)N/N=C/c1c(Cl)cncc1Cl` [Example 6, (3-Bromo-phenylamino)-acetic acid [1-(3,5-dichloro-pyridin-4-yl)-meth-(E)-ylidene]-hydrazide]: the Ki lay in the range of 1 to 10 µM. The result for `O=C(CNc1ccccc1N1CCCCC1)N/N=C/c1ccncc1` [Example 74, (2-Piperidin-1-yl-phenylamino)-acetic acid [1-pyridin-4-yl-meth-(E)-ylidene]-hydrazide] reads > 10 µM; that for `Cc1ccccc1NCC(=O)N/N=C/c1ccncc1` [Example 65, o-Tolylamino-acetic acid [1-pyridin-4-yl-meth-(E)-ylidene]-hydrazide], > 10 µM; that for `CC(C)c1cccc(NCC(=O)N/N=C/c2c(Cl)cncc2Cl)c1` [Example 16, (3-Isopropyl-phenylamino)-acetic acid [1-(3,5-dichloro-pyridin-4-yl)-meth-(E)-ylidene]-hydrazide], > 10 µM.

As to `O=C(CNc1cccc(I)c1)N/N=C/c1c(Cl)cncc1Cl` [Example 11, (3-Iodo-phenylamino)-acetic acid [1-(3,5-dichloro-pyridin-4-yl)-meth-(E)-ylidene]-hydrazide], the Ki lay within 1 to 10 µM. The result for `O=C(CNc1cccc(C(=O)Nc2cccnc2)c1)N/N=C/c1ccncc1` [Example 80, N-Pyridin-3-yl-3-{[1-pyridin-4-yl-meth-(E)-ylidene-hydrazinocarbonylmethyl]-amino}-benzamide] reads 0.1 to 1 µM.
